Patent publication US20250179017A1 (GUANGDONG NEWOPP BIOPHARMACEUTICALS CO., LTD., priority 2022, published 2025)

Target: T1, human EP2 (PTGER2) (Homo sapiens, UniProt P43116)
T1 construct: Cayman Chemical (Human EP2 Reporter Assay Kit)
Assay: EP2 antagonist assay (HEK-293 CNG membrane potential cAMP assay / 293T SEAP reporter assay, PGE2-stimulated)
Assay type: cell-based
Conditions: EP2 antagonist activity; concentration for 50% inhibition of signal compared to DMSO
Summary of the method: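 HEK-293 CNG cells expressing human EP2: compound preincubated 15 min at RT, then PGE2 at 5 nM final, 30 min; membrane-potential dye fluorescence (ex 530, em 590 nm), background-subtracted, gave IC50. Alternatively, 293T cells reverse-transfected with EP2 and CRE-SEAP, compound plus 13 nM PGE2 for 6-8 h, SEAP luminescence.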

T1 sequence (P43116 whole entry): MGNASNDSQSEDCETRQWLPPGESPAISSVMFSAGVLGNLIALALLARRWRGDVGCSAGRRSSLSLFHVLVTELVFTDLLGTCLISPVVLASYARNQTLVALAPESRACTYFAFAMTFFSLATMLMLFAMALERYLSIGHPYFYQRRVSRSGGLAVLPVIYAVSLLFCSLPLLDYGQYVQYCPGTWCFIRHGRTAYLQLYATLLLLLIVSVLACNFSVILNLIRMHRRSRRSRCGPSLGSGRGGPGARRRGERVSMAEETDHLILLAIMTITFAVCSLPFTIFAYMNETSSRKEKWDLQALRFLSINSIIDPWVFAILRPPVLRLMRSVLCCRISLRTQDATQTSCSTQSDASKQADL

Molecule	IC50 [nM]
C[C@H](NC(=O)c1cc(-c2ccccc2)cc2cnn([C@@H](C)c3ccc4ccccc4c3)c12)c1ccc(C(=O)O)cc1 [Example 197, 4-((S)-1-(1-((S)-1-(naphthalen-2-yl)ethyl)-5-phenyl-1H-indazole-7-carboxamido)ethyl)benzoic acid]	100 to 1000
O=C(O)c1ccc(CNC(=O)c2cc(-c3ccccc3)cc3ccn(Cc4ccc(-c5ccc(F)cc5)cc4)c23)cc1 [Example 208, 4-((1-((4′-fluoro-[1,1′-biphenyl]-4-yl)methyl)-5-phenyl-1H-indole-7-carboxamido)methyl)benzoic acid]	< 100
O=C(O)c1ccc(CNC(=O)c2cc(-c3ccc(F)cc3)cc3ccn(Cc4ccc(-c5ccc(F)cc5)cc4)c23)cc1 [Example 209, 4-((1-((4′-fluoro-[1,1′-biphenyl]-4-yl)methyl)-5-(4-fluorophenyl)-1H-indole-7-carboxamido)methyl)benzoic acid]	< 100
O=C(O)c1ccc(CNC(=O)c2cc(-c3cc(F)cc(F)c3)cc3ccn(Cc4ccc(-c5ccc(F)cc5)cc4)c23)cc1 [Example 210, 4-((5-(3,5-difluorophenyl)-1-((4′-fluoro-[1,1′-biphenyl]-4-yl)methyl)-1H-indole-7-carboxamido)methyl)benzoic acid]	< 100
O=C(O)c1ccc(CNC(=O)c2cc(-c3ccc(F)c(F)c3)cc3ccn(Cc4ccc(-c5ccc(F)cc5)cc4)c23)cc1 [Example 211, 4-((5-(3,4-difluorophenyl)-1-((4′-fluoro-[1,1′-biphenyl]-4-yl)methyl)-1H-indole-7-carboxamido)methyl)benzoic acid]	< 100
C[C@H](NC(=O)c1cc(-c2ccccc2)cc2ccn(Cc3ccc(-c4ccc(F)cc4)cc3)c12)c1ccc(C(=O)O)cc1 [Example 212, (S)-4-(1-(1-((4′-fluoro-[1,1′-biphenyl]-4-yl)methyl)-5-phenyl-1H-indole-7-carboxamido)ethyl)benzoic acid]	< 100
C[C@H](NC(=O)c1cc(-c2ccc(F)cc2)cc2ccn(Cc3ccc(-c4ccc(F)cc4)cc3)c12)c1ccc(C(=O)O)cc1 [Example 213, (S)-4-(1-(1-((4′-fluoro-[1,1′-biphenyl]-4-yl)methyl)-5-(4-fluorophenyl)-1H-indole-7-carboxamido)ethyl)benzoic acid]	< 100
C[C@H](NC(=O)c1cc(-c2cc(F)cc(F)c2)cc2ccn(Cc3ccc(-c4ccc(F)cc4)cc3)c12)c1ccc(C(=O)O)cc1 [Example 214, (S)-4-(1-(5-(3,5-difluorophenyl)-1-((4′-fluoro-[1,1′-biphenyl]-4-yl)methyl)-1H-indole-7-carboxamido)ethyl)benzoic acid]	< 100
C[C@H](NC(=O)c1cc(-c2ccc(F)c(F)c2)cc2ccn(Cc3ccc(-c4ccc(F)cc4)cc3)c12)c1ccc(C(=O)O)cc1 [Example 215, (S)-4-(1-(5-(3,4-difluorophenyl)-1-((4′-fluoro-[1,1′-biphenyl]-4-yl)methyl)-1H-indole-7-carboxamido)ethyl)benzoic acid]	< 100
O=C(O)c1ccc(CNC(=O)c2cc(-c3ccc(F)c(F)c3)cc3ccn(Cc4ccc5ccccc5c4)c23)cc1 [Example 216, 4-((5-(3,4-difluorophenyl)-1-(naphthalen-2-ylmethyl)-1H-indole-7-carboxamido)methyl)benzoic acid]	< 100
C[C@H](NC(=O)c1cc(-c2ccc(F)c(F)c2)cc2ccn(Cc3ccc4ccccc4c3)c12)c1ccc(C(=O)O)cc1 [Example 217, (S)-4-(1-(5-(3,4-difluorophenyl)-1-(naphthalen-2-ylmethyl)-1H-indole-7-carboxamido)ethyl)benzoic acid]	< 100
O=C(O)c1ccc(CNC(=O)c2cc(-c3ccc(F)c(F)c3)cc3cnn(Cc4ccc5ccccc5c4)c23)cc1 [Example 218, 4-((5-(3,4-difluorophenyl)-1-(naphthalen-2-ylmethyl)-1H-indazole-7-carboxamido)methyl)benzoic acid]	< 100
C[C@H](NC(=O)c1cc(-c2ccc(F)c(F)c2)cc2cnn(Cc3ccc4ccccc4c3)c12)c1ccc(C(=O)O)cc1 [Example 219, (S)-4-(1-(5-(3,4-difluorophenyl)-1-(naphthalen-2-ylmethyl)-1H-indazole-7-carboxamido)ethyl)benzoic acid]	< 100
C[C@H](NC(=O)c1cc(-c2ccc(F)c(F)c2)cc2cnn(Cc3cccc(C(F)(F)F)c3)c12)c1ccc(C(=O)O)cc1 [Example 220, (S)-4-(1-(5-(3,4-difluorophenyl)-1-(3-(trifluoromethyl)benzyl)-1H-indazole-7-carboxamido)ethyl)benzoic acid]	< 100
((5-(3-cyano-5-fluorophenyl)-1-(4-(trifluoromethyl)benzyl)-1H-indole-7-carboxamido)methyl)benzoic acid [Example 77]	< 100

Results, then the molecule that gave them:

IC50 [nM]	Molecule
< 100	C[C@H](NC(=O)c1cc(-c2ccc(F)c(F)c2)cc2cnn(Cc3ccc(C(F)(F)F)cc3)c12)c1ccc(C(=O)O)cc1 [Example 195, (S)-4-(1-(5-(3,4-difluorophenyl)-1-(4-(trifluoromethyl)benzyl)-1H-indazole-7-carboxamido)ethyl)benzoic acid]
< 100	C[C@H](NC(=O)c1cc(-c2ccccc2)cc2cnn([C@H](C)c3ccc4ccccc4c3)c12)c1ccc(C(=O)O)cc1 [Example 196, 4-((S)-1-(1-((R)-1-(naphthalen-2-yl)ethyl)-5-phenyl-1H-indazole-7-carboxamido)ethyl)benzoic acid]
< 100	C[C@H](NC(=O)c1cc(-c2ccccc2)cc2cnn(Cc3ccc(-c4ccccc4)cc3)c12)c1ccc(C(=O)O)cc1 [Example 198, (S)-4-(1-(1-([1,1′-biphenyl]-4-ylmethyl)-5-phenyl-1H-indazole-7-carboxamido)ethyl)benzoic acid]
< 100	C[C@H](NC(=O)c1cc(-c2ccc(F)cc2)cc2cnn(Cc3ccc(-c4ccccc4)cc3)c12)c1ccc(C(=O)O)cc1 [Example 199, (S)-4-(1-(1-([1,1′-biphenyl]-4-ylmethyl)-5-(4-fluorophenyl)-1H-indazole-7-carboxamido)ethyl)benzoic acid]
< 100	C[C@H](NC(=O)c1cc(-c2cc(F)cc(F)c2)cc2cnn(Cc3ccc(-c4ccccc4)cc3)c12)c1ccc(C(=O)O)cc1 [Example 200, (S)-4-(1-(1-([1,1′-biphenyl]-4-ylmethyl)-5-(3,5-difluorophenyl)-1H-indazole-7-carboxamido)ethyl)benzoic acid]
< 100	C[C@H](NC(=O)c1cc(-c2ccc(F)c(F)c2)cc2cnn(Cc3ccc(-c4ccccc4)cc3)c12)c1ccc(C(=O)O)cc1 [Example 201, (S)-4-(1-(1-([1,1′-biphenyl]-4-ylmethyl)-5-(3,4-difluorophenyl)-1H-indazole-7-carboxamido)ethyl)benzoic acid]
< 100	C[C@H](NC(=O)c1cc(-c2ccccc2)cc2cnn(Cc3ccc(-c4ccc(F)cc4)cc3)c12)c1ccc(C(=O)O)cc1 [Example 202, (S)-4-(1-(1-((4′-fluoro-[1,1′-biphenyl]-4-yl)methyl)-5-phenyl-1H-indazole-7-carboxamido)ethyl)benzoic acid]
< 100	C[C@H](NC(=O)c1cc(-c2ccc(F)cc2)cc2cnn(Cc3ccc(-c4ccc(F)cc4)cc3)c12)c1ccc(C(=O)O)cc1 [Example 203, (S)-4-(1-(1-((4′-fluoro-[1,1′-biphenyl]-4-yl)methyl)-5-(4-fluorophenyl)-1H-indazole-7-carboxamido)ethyl)benzoic acid]
< 100	C[C@H](NC(=O)c1cc(-c2cc(F)cc(F)c2)cc2cnn(Cc3ccc(-c4ccc(F)cc4)cc3)c12)c1ccc(C(=O)O)cc1 [Example 204, (S)-4-(1-(5-(3,5-difluorophenyl)-1-((4′-fluoro-[1,1′-biphenyl]-4-yl)methyl)-1H-indazole-7-carboxamido)ethyl)benzoic acid]
< 100	C[C@H](NC(=O)c1cc(-c2ccc(F)c(F)c2)cc2cnn(Cc3ccc(-c4ccc(F)cc4)cc3)c12)c1ccc(C(=O)O)cc1 [Example 205, (S)-4-(1-(5-(3,4-difluorophenyl)-1-((4′-fluoro-[1,1′-biphenyl]-4-yl)methyl)-1H-indazole-7-carboxamido)ethyl)benzoic acid]
< 100	N#Cc1cccc(-c2cc(C(=O)NC3(c4ccc(C(=O)O)cc4)CC3)c3c(ccn3Cc3cccc(Cl)c3)c2)c1 [Example 206, 4-(1-(1-(3-chlorobenzyl)-5-(3-cyanophenyl)-1H-indole-7-carboxamido)cyclopropyl)benzoic acid]
< 100	C[C@H](NC(=O)c1cc(-c2ccc(F)c(F)c2)cc2ccn(Cc3ccc(-c4ccccc4)cc3)c12)c1ccc(C(=O)O)cc1 [Example 207, (S)-4-(1-(1-([1,1′-biphenyl]-4-ylmethyl)-5-(3,4-difluorophenyl)-1H-indole-7-carboxamido)ethyl)benzoic acid]
